Several values for one entry are separate records, joined by “and”; a condition that tells them apart may be missing. Equal entries are not always repeated. Where two headings read alike, the source gives them in different places.
Legend:
SARS-CoV-2 [1] = assay: Anti-SARS-CoV-2 activity in Calu3 cells (virus yield inhibition); type: cell-based; conditions: Severe acute respiratory syndrome coronavirus 2, Calu-3, Table 1
SARS-CoV-2 [2] = assay: Anti-SARS-CoV-2 activity in Calu3 ALI culture; type: cell-based; conditions: Severe acute respiratory syndrome coronavirus 2, Calu-3; Calu3 air-liquid interface
SARS-CoV-2 [3] = assay: Anti-SARS-CoV-2 activity in HAE-ALI culture; type: cell-based; conditions: Severe acute respiratory syndrome coronavirus 2; HAE air-liquid interface
SARS-CoV-2 [4] = assay: Anti-SARS-CoV-2 activity in HAE-HBO (apical-out lung organoids); type: cell-based; conditions: Severe acute respiratory syndrome coronavirus 2
[5] = Cytotoxicity in CEM cells; type: cell-based, human; conditions: human, CEM lymphoblastoid cells
Description: The toxicity of the compounds was assessed in Vero, human PBM, CEM (human lymphoblastoid), MT-2, and HepG2 cells, as described previously (see Schinazi R. F., Sommadossi J.-P., Saalmann V., Cannon D. L., Xie M.-Y., Hart G. C., Smith G. A. & Hahn E. F. Antimicrob. Agents Chemother. 1990, 34, 1061-67). Cycloheximide was included as positive cytotoxic control, and untreated cells exposed to solvent were included as negative controls. The cytotoxicity IC50 was obtained from the concentration-response curve using the median effective method described previously (see Chou T.-C. & Talalay P. Adv. Enzyme Regul. 1984, 22, 27-55; Belen'kii M. S. & Schinazi R. F. Antiviral Res. 1994, 25, 1-11).

Omicron [6] = assay: Anti-Omicron activity in Calu-3; type: cell-based, SARS-CoV-2; conditions: Severe acute respiratory syndrome coronavirus 2
[7] = Non-compartmental PK analysis of IV and oral Compound A in mice; type: in vivo; conditions: for half-life: read-out: mean terminal t1/2 (converted)
Description: A study was performed to measure the concentration of Compound A ([…]) over time (hours) when administered orally at a concentration of 30 mg/kg (FIG. 8A) and intravenously at a concentration of 15 mg/kg (FIG. 8B).

[8] = Quantification of Compound A in mouse lung, brain and plasma; type: in vivo, CD-1 mice; conditions: for concentration at 7 h / Brain concentration / Lung concentration: 7 h; for Plasma concentration, average / Plasma concentration: assuming density 1 g/mL
Description: CD-1 mice were treated with Compound A PO (30 mg/kg, 3 mice) or IV (15 mg/kg, 3 mice). Lung and brain samples were collected at 7 h.
Lung and brain samples were homogenized with 5× volume of 20% MeOH.
50 μL tissue homogenate was mixed with 250 μL MeOH (containing 40 nM indinavir as IS).
The supernatant was air-dried, then reconstituted in 150 μL of H2O.
Subjected to LC-MS analysis.
Calibration curve range: 30 nM to 30 μM.
Instrument: TSQ Quantiva, Column: Kinetex XB—C8 (50×2.1 mm, 2.6 μm)
LC buffers: A): 0.1% formic acid, and B): Acetonitrile
MRM methods: Compound A (269.2→112 positive), Indinavir (IS, 614.4→421.2 positive, IS)

[9] = Single dose range-finding study in Golden Syrian hamsters; type: in vivo; conditions: for Notes (clinical observations): hamster, in vivo, ip
Description: 3 male Syrian hamsters were injected intraperitoneally with a Compound A starting at 5 mg/kg at time 0 with […] administered every 30 minutes upto a final 80 mg/kg. Clinical observations of toxicity were recorded.

[10] = Multi-dose range-finding study in Golden Syrian hamsters; conditions: hamster, in vivo, po, 30 mg/kg
Description: Multi-dose range-finding study in Golden Syrian Hamsters: 3 male Syrian hamsters were given 30 mg/kg of compound A by oral gavage daily for 7 days. The body weight of each of the individual hamsters during the nucleoside analog treatment was measured (grams per day) over a 7 day period. […] The body temperature of the hamsters was also measured over the course of the treatment in two of the hamsters (FIG. 9, Rodent 1 and Rodent 2). The third hamster lost the chip, and, despite re-chipping, temperatures were still not recording.
Daily observations of the hamsters were taken, particularly with respect to their ability to eat and drink normally, and other behavior and activity ratings (B.A.R.), and the observations are summarized below in Table 10.

in vitro [11] = conditions: human
in vitro [12] = conditions: human, Caco-2
[13] = Cytotoxicity in Vero cells; conditions: African green monkey, Vero kidney cells
Omicron [14] = assay: microbe, parasite or virus in culture
SARS-CoV-2 [15] = assay: Anti-SARS-CoV-2 activity in Caco2 cells (virus yield inhibition)
SARS-CoV-2 [16] = conditions: at 1 microM; FIGS. 1A-E (monocytes, epithelial cells, extracellular, total virus)
[17] = IV 15 mg/kg, individual mice, 15 mg/kg
[18] = PO 30 mg/kg, individual mice, 30 mg/kg

**Q.** Which results are given for `N#C[C@@]1(n2ccc(N)nc2=O)O[C@H](CO)[C@@H](O)[C@H]1O` [Compound A, (2R,3R,4S,5R)-2-(4-amino-2-oxopyrimidin-1(2H)-yl)-3,4-dihydroxy-5-(hydroxymethyl)-tetrahydrofuran-2-carbonitrile]?
**A.** EC50 (SARS-CoV-2 [1]): 20 nM; EC90 (SARS-CoV-2 [1]): 200 nM; EC50 (SARS-CoV-2 [2]): 1300 nM; EC90 (SARS-CoV-2 [2]): 7.4 µM; EC50 (SARS-CoV-2 [3]): 400 nM; EC90 (SARS-CoV-2 [3]): 1600 nM; EC50 (SARS-CoV-2 [4]): 300 nM; EC90 (SARS-CoV-2 [4]): 500 nM; CC50 [5]: 99 µM; EC50 (Omicron [6]): 1800 to 2100 nM; EC90 (Omicron [6]): 4.5 to 6.2 µM; oral bioavailability [7]: excellent oral bioavailability; plasma concentration at start of decline ([7]; IV 15 mg/kg, FIG. 8B): around 10 μg/ml; Mean input time (MIT) into plasma of oral dose ([7]; MRTPO−MRTIV): 1.05 h; Ka ([7]; approximation assuming 1-compartment PK, ~1/MIT): ~0.95 h⁻¹; half-life ([7]; mouse, plasma, 15 mg/kg, IV dose): 134 min; half-life ([7]; mouse, plasma, 30 mg/kg, oral dose): 148 min; concentration at 7 h ([7]; mouse, plasma, IV 15 mg/kg, over the course of 7 hours, FIG. 8B, read-out: plasma concentration after 7 hours): ~100 ng/mL; bioavailability ([7]; mouse, plasma, oral 30 mg/kg vs IV 15 mg/kg, excluding PO_m3): 99.5%; AUC ([7]; mouse, plasma, oral 30 mg/kg, excluding PO_m3 (possible outlier), read-out: mean oral AUCPO): 28300 ng·h/mL; mean oral CL ([7]; oral 30 mg/kg, excluding PO_m3): 1.06 L/hr per kg; MRTPO ([7]; oral dose): 2.65 h; concentration at 7 h ([8]; CD-1, mouse, brain, iv, 15 mg/kg, IV 15 mg/kg, average of 3 mice, assuming tissue density 1 g/mL, read-out: Brain concentration, average): 270 nM; concentration at 7 h ([8]; CD-1, mouse, brain, iv, 15 mg/kg, IV 15 mg/kg, average of 3 mice, read-out: Brain concentration, average): 71.3 ng/g; concentration at 7 h ([8]; CD-1, mouse, brain, po, 30 mg/kg, PO 30 mg/kg, average of 3 mice, assuming tissue density 1 g/mL, read-out: Brain concentration, average): 200 nM; concentration at 7 h ([8]; CD-1, mouse, brain, po, 30 mg/kg, PO 30 mg/kg, average of 3 mice, read-out: Brain concentration, average): 53.1 ng/g; concentration at 7 h ([8]; CD-1, mouse, brain, po, 30 mg/kg, PO 30 mg/kg, individual mice, assuming tissue density 1 g/mL, read-out: Brain concentration): 280 nM; concentration at 7 h ([8]; CD-1, mouse, brain, po, 30 mg/kg, PO 30 mg/kg, individual mice, read-out: Brain concentration): 73.9 ng/g; concentration at 7 h ([8]; CD-1, mouse, lung, iv, 15 mg/kg, IV 15 mg/kg, average of 3 mice, assuming tissue density 1 g/mL, read-out: Lung concentration, average): 1200 nM; concentration at 7 h ([8]; CD-1, mouse, lung, iv, 15 mg/kg, IV 15 mg/kg, average of 3 mice, read-out: Lung concentration, average): 321 ng/g; concentration at 7 h ([8]; CD-1, mouse, lung, iv, 15 mg/kg, IV 15 mg/kg, individual mice, assuming tissue density 1 g/mL, read-out: Lung concentration): 830 nM; concentration at 7 h ([8]; CD-1, mouse, lung, iv, 15 mg/kg, IV 15 mg/kg, individual mice, read-out: Lung concentration): 223 ng/g; concentration at 7 h ([8]; CD-1, mouse, lung, po, 30 mg/kg, PO 30 mg/kg, average of 3 mice, assuming tissue density 1 g/mL, read-out: Lung concentration, average): 4010 nM; concentration at 7 h ([8]; CD-1, mouse, lung, po, 30 mg/kg, PO 30 mg/kg, average of 3 mice, read-out: Lung concentration, average): 1080 ng/g; Brain concentration [8, 17]: 39.3 ng/g and 56.9 ng/g and 117.8 ng/g; Lung concentration [8, 17]: 412.0 ng/g and 327.1 ng/g; concentration at 7 h ([8]; IV 15 mg/kg, individual mice, assuming tissue density 1 g/mL, 15 mg/kg, read-out: Brain concentration): 150 nM and 210 nM and 440 nM; concentration at 7 h ([8]; IV 15 mg/kg, individual mice, assuming tissue density 1 g/mL, 15 mg/kg, read-out: Lung concentration): 1540 nM and 1220 nM; Plasma concentration, average ([8]; IV 15 mg/kg, average of 3 mice): 0.52 µM; Plasma concentration [8, 17]: 0.37 µM and 0.61 µM and 0.59 µM; Brain concentration [8, 18]: 40.8 ng/g and 44.7 ng/g; Lung concentration [8, 18]: 881.8 ng/g and 730.8 ng/g and 1,615 ng/g; concentration at 7 h ([8]; PO 30 mg/kg, individual mice, assuming tissue density 1 g/mL, 30 mg/kg, read-out: Brain concentration): 150 nM and 170 nM; concentration at 7 h ([8]; PO 30 mg/kg, individual mice, assuming tissue density 1 g/mL, 30 mg/kg, read-out: Lung concentration): 3290 nM and 2720 nM and 6020 nM; Plasma concentration, average ([8]; PO 30 mg/kg, average of 3 mice): 3.13 µM; Plasma concentration [8, 18]: 2.09 µM and 2.32 µM and 4.99 µM; signs of toxicity ([9]; IP injection, total dose of 80 mg/kg, hamsters): no signs of toxicity; Notes (clinical observations) ([9]; 55 mg/kg): B.A.R.* No sign of discomfort; Notes (clinical observations) ([9]; 80 mg/kg): B.A.R.* No sign of discomfort; Daily Observations [10]: B.A.R. Eating; ability to eat and drink [10]: able to eat and drink normally; CC50 (in vitro [11]): > 100 µM; CC50 (in vitro [12]): > 100 µM; CC50 [13]: > 100 µM; EC50 (Omicron [14]; Severe acute respiratory syndrome coronavirus 2, Caco-2, read-out: Anti-Omicron Activity (Caco-2) EC50): 1200 nM; EC90 (Omicron [14]; Severe acute respiratory syndrome coronavirus 2, Caco-2, read-out: Anti-Omicron Activity (Caco-2) EC90): 2200 nM; EC50 (SARS-CoV-2 [15]; Severe acute respiratory syndrome coronavirus 2, Caco-2, read-out: Anti-SARS-CoV-2 Activity (Caco2) EC50): 300 nM; EC90 (SARS-CoV-2 [15]; Severe acute respiratory syndrome coronavirus 2, Caco-2, read-out: Anti-SARS-CoV-2 Activity (Caco2) EC90): 1200 nM; reduction of viral loads (SARS-CoV-2 [16]): 2-3 log

Reference: patent US20250114389A1, “NUCLEOSIDES AND NUCLEOTIDES ANALOGS AS ANTIVIRAL AGENTS” (Emory University, priority 2021, published 2025)
